From patent US12070467B2, “Method of treating ciliated tissue using CSA micelles” (Brigham Young University, priority 2018, dated 2024) come the findings set out here.

Bounds are passed on as bounds.

The subject of one test is P. aeruginosa ATCC 47085. The test is described as follows: Minimum inhibitory concentration (MIC), broth microdilution. The test is classed as cell-based, Pseudomonas aeruginosa. The conditions noted are these: 37° C., 18-20 h. As for the experimental part: (§1) Staphylococcus aureus (ATCC 25923) and Pseudomonas aeruginosa (ATCC 47085 (PA01)) were grown from fresh colonies in trypticase soy broth (TSB) and incubated overnight at 37° C. Fungal cultures, Candida albicans (ATCC 90028) and Candida auris (CDC 0382, 0384, 0387, and 0389), were grown overnight in sabouraud dextrose broth (SDB) or Roswell Park Memorial Institute medium (RPMI). Cultures of bacteria and fungi were centrifuged, and pellets were washed three times with phosphate buffered saline (PBS) and further resuspended in fresh PBS. Bacterial cultures were diluted in TSB and fungal cultures were diluted in SDB or RPMI to […] or 10^6 CFU/mL (optical density (OD) readings at 600 nm).
Minimum inhibitory concentrations (MICs) were measured using the broth microdilution protocol described by the Clinical and Laboratory Standards Institute. […] Aliquots (100 μL) of a prepared inoculum (10^6 CFU/mL for bacteria and […] CFU/mL for fungi) were added, and plates were incubated at 37° C. for 18-20 h. Bacterial or fungal growth was visually observed to determine the MICs. Negative and positive controls were included for each set of MIC measurements. For studies with pluronic, the surfactant was added at 4% and 5% to the initial inocula in each experiment. Measurements were performed in triplicate for all susceptibility tests.
(Broth dilution looks for growth in wells or tubes with falling amounts of substance.)

The test system of test [1] is C. albicans ATCC 90028 biofilm. The test is described as follows: Minimum biofilm eradication concentration (MBEC). The test is classed as cell-based, Candida albicans. The conditions noted are these: 48 h biofilm, 24 h treatment. Here is the method: as §1
Inocula (10^6 CFU/mL) of bacterial and fungal strains (P. aeruginosa, S. aureus, C. albicans, and C. auris) were incubated at 37° C. for 48 h in 1 mL of TSB or SDB in 96-well plates. Following incubation, the growth medium was gently removed, and wells were washed three times with sterile PBS. […] Wells, including well edges, were scraped thoroughly with a plastic spatula. Well contents were removed in 1 mL of neutralizing broth (Dey-Engley, Sigma-Aldrich) and placed in a sonicating water bath (Fisher Scientific FS60, 42 kHz, 100 W, Pittsburgh, PA, USA) to disrupt biofilms. […] After 24 h or 48 h of incubation at 37° C., colonies were counted and MBECs were determined. […]

Test [2] concerns bacterial and fungal biofilms: S. aureus (ATCC 25923), P. aeruginosa (ATCC 47085), C. albicans (ATCC 90028), C. auris (CDC 384). The test is described as follows: Antibiofilm activity by plating organisms freed from biofilms and counting colonies (FIG. 2). To be noted: 100 μg/mL, 48 h biofilms. The test is classed as cell-based. Here is the method:
Consequently, this concentration was used as a target for antibacterial and antifungal activity, as well as in tolerability studies with trachea and lung explants. A key preliminary question in these studies is whether the pluronic alone has any effect on bacteria and fungi. […] In these assays, biofilms were generated over 48 h, and after treatment, bacterial and fungal counts were determined by plating organisms freed from biofilms and counting colonies. Detection limits for the experiments were two logs. […] Antibiofilm results were determined through the plating of microorganisms freed from biofilms, culturing, and plate counting. In FIG. 2, white bars show remaining S. aureus (ATCC 25923); black bars show remaining P. aeruginosa (ATCC 47085); gray bars show remaining C. albicans (ATCC 90028); hashed bars show remaining C. auris (CDC 384). The Detection limit was 2 logs. * indicates p<0.05 relative to controls and to pluronic alone.

Test [3] has as its system biofilms of S. aureus (ATCC 25923), P. aeruginosa (ATCC 47085), C. albicans (ATCC 90028), C. auris (CDC 384). The test can be described thus: Antibiofilm colorimetric (XTT) assay, percent survival (FIG. 3). Format: cell-based. To be noted: 24 h, p<0.05 relative to controls. As for the experimental part:
Biofilm formation by selected bacterial and fungal strains was quantified by measuring metabolic activity within biofilms using 2,3-bis-(2-methoxy-4-nitro-5-sulfophenyl)-2H-tetrazolium-5-carboxanilide (XTT). Biofilms were formed in 96-well plates and incubated for 48 h at 37° C. […] After incubation, the wells were carefully washed with PBS. A solution of 10 mM menadione in 100% acetone was added to an XTT solution (0.5 mg/mL) and mixed. An aliquot of the XTT/menadione solution (100 μL) was added to each well. Each plate was then wrapped in aluminum foil and incubated for 2-3 h at 37° C. To prepare to read the optical density, aliquots of the supernatant (70 μL) were removed from each well. Using a microtiter plate reader, colorimetric changes were measured at 490 nm. […] (control). To corroborate the antibiofilm data from counting bacterial and fungal colonies, a colorimetric assay was performed to quantify biofilms remaining on surfaces after treatment. Results were normalized to untreated controls. […] Antibiofilm results determined through colorimetric (XTT) assay represented as percent survival. […]

Test [4] deals with P. aeruginosa (ATCC 47085). The test can be described thus: Kinetics of bactericidal activity (FIG. 4). The conditions noted are these: detection limit two logs. Format: cell-based, Pseudomonas aeruginosa. Here is the method: (§2) Cultures were incubated at 37° C. At 5, 15, 30, 60, and 120 min, aliquots were removed from each well and added to neutralizing buffer to ensure that no further antibacterial activity occurred. These samples were then serially diluted and plated on TSA or SDA. Cultures were incubated at 37° C. for 24 h or 48 h, and colonies were counted and recorded.
(§3) Detection limit was two logs.

The next test deals with S. aureus. The test can be described thus: Kinetics of bactericidal activity. Format: cell-based, Staphylococcus aureus. The conditions noted are these: CSA-131 100 μg/mL, pluronic 4%, data not shown. Here is the method: as §2
FIG. 4 is a line graph comparing the kinetic antibacterial activity of CSA compositions with micelles compared to a control without CSA. Inocula of just over 10^6 CFU/mL were reduced to the detection limit within 15 min. […] Detection limit was two logs.

In the next test the test system is C. albicans. The test can be described thus: Kinetics of fungicidal activity. The test is classed as cell-based, Candida albicans. To be noted: CSA-131 100 μg/mL, pluronic 4%, data not shown. As for the experimental part: as §2, §3

Compound `CCCCCCCCCCCCNCCC[C@@H](C)[C@H]1CC[C@H]2[C@@H]3[C@H](OCCCN)C[C@@H]4C[C@H](OCCCN)CC[C@]4(C)[C@H]3C[C@H](OCCCN)[C@]12C.Cl.Cl.Cl.Cl` [CSA-131] yielded an MIC in the test on P. aeruginosa ATCC 47085 of 2 µg/mL. This compound also returned an MBEC in test [1] of 48 µg/mL. In addition, the “Reduction of bacterial and fungal counts from biofilms” value in test [2] (with pluronic) is given as greater than 99.99%; in test [2] (with pluronic, counts lowered to the detection limit (two logs)) it was “> four”; in test [2] (without pluronic), greater than 99.99%; in test [2] (without pluronic, counts lowered to the detection limit (two logs)) it was “> four”. For the same compound, the “Biofilm remaining after treatment (XTT, percent survival vs untreated control)” value is “Significant decreases in biofilm” in test [3] (CSA-131 100 μg/mL alone) and “Significant decreases in biofilm” in test [3] (CSA-131 100 μg/mL with pluronic, difference to CSA-131 alone not significant). The “Time for inocula of just over 106 CFU/mL to be reduced to the detection limit” value in test [4] (CSA-131 100 μg/mL alone) and in test [4] (CSA-131 100 μg/mL with pluronic (4%)) was no more than 15 min throughout. Moreover, the “Difference in kinetic activity of the ceragenin alone and with pluronic” value in the test on S. aureus and in the test on C. albicans was “no significant differences” in each case.

A word on the MIC: it is the least concentration at which growth counts as inhibited. A high value points to a less susceptible organism.
